The text below walks through data of patent publication US10022376B2 (Pfizer Inc., priority 2014, dated 2018).

Molecules are shown by their SMILES. Structures can show the parent of a compound that is named as a salt.

Assay [1] relates to rhIL-2 stimulated STAT5 phosphorylation in isolated human T cells. In words: Human T Cell Assay: Inhibition of pSTAT5. Format: cell-based. As for the experimental part: Human T Cell Assay: Inhibition of pSTAT5
An assay measuring the efficacy of JAK inhibitors on the functional response of recombinant human interleukin-2 (rhIL-2) stimulated STAT5 phosphorylation in isolated human T cells.
Human whole blood from individual donors was collected from the phlebotomy unit on-site. Peripheral venous blood (30-60 mL) from healthy volunteers of either sex was used as the source of T cells. T cell isolation from venous whole blood is routinely performed in a class II microbiological safety cabinet. Each sample was collected into between 3 and 6 10 mL Sodium Heparin Vacutainer tubes (BD #367874). The blood was poured into sterile 50 mL conicals (Corning #430828) and incubated with the T cell Rosette Sep Cocktail (Stemcell Technologies #15061) at 50 μL/mL antibody/blood ratio for 20 min. with shaking at room temperature. The blood/antibody mixture was then diluted 1:2 with PBS (Pfizer media prep)/2% FBS (Sigma #F4135) and 30 mL of the mixture was layered onto 15 mL Ficoll-Hypaque (GE Healthcare #17-1440-03) in 50 mL conical tubes. The tubes were then centrifuged at 1200×g for 20 min. at room temperature with no brake. Following centrifugation the T cells formed a buffy coat between the Ficoll-Hypaque and plasma layers. The plasma above the buffy coats was removed to within 5 mm of the buffy coat using a sterile Pasteur pipette. The buffy coats were then collected into fresh sterile 50 mL conical tubes containing 25 mL PBS/2% FBS (2 buffy coats per 50 mL conical). PBS/2% FBS was added to the buffy coat cells such that the final volume in the tube was 50 mL. The tubes were then centrifuged at 200×g for 15 min. at room temperature. The supernatant was discarded and the pellet re-suspended in 10-20 mL of DMEM (Pfizer media prep) Assay media/0.2% BSA (Miltenyi #130-091-376). A differential cell count was performed using a haemacytometer and cells were diluted to 1.1×10^6 T cells/ml in DMEM/0.2% BSA media. Compounds (10 mM-0.3 μM) were diluted with Hanks Balanced Salt Solution (HBSS) (Sigma #H6648) at 1:100 dilution. Immediately following cell isolation and compound dilution, 90 μl/well of T cells (˜1×10^6/ml) in assay medium (DMEM+0.2% BSA) was added to the VWR Deep well V bottom plate (#3906-520-300). 10 μl/well of compound (final concentration range of 10 μM-0.3 nM with 0.1% DMSO) or 0.1% DMSO in HBSS as controls was added to the appropriate wells. Plates were incubated for 1 hour at 37° C., 5% CO2 incubator. 10 μl of 3.3 μg/mL rhIL-2 (R&D Systems #202-IL) was added to the cells (300 ng/ml final assay concentration). Wells containing T cells, medium with 0.1% DMSO and no rhIL-2 were used as background controls. Plates were incubated for 15 min at 37° C. After rhIL-2 stimulation, 800 μL of cold PBS/0.1% BSA was added and the plates were centrifuged at 1400 rpm for 5 min at 4° C. Supernatant was aspirated and 100 μL of ice-cold MSD lysis buffer containing protease and phosphatase inhibitors from Phospho-STAT5a/b Tyr694 assay kit (Meso-Scale Discovery #K150IGD) was added to the cell pellet. Plates were shaken for 30 min. at 4° C. and then frozen overnight. The following day, cell lysates were assayed using the MSD ELISA kit protocol for detection of pSTAT5.
Data were collected and transformed into percent inhibition and calculated using the following formula: […]

In assay [2] the test system is rhIFNγ stimulated STAT-3 phosphorylation in the A549 human epithelial cell line. The experiment in a line: A549 Cell Assay: Inhibition of pSTAT3. Format: cell-based. As to conditions: Homo sapiens; A549 cells. An outline of the steps: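 A549 cells cultured 18 h were preincubated 1 h at 37° C with compound (0.3 nM to 10 μM, 0.1% DMSO) in DMEM with 0.2% BSA, then stimulated with 20 ng/mL rhIFNγ for 30 min. pSTAT3 Tyr705 in the lysates was measured by MSD immunoassay and expressed as percent inhibition.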

Turning to `CCc1cc(O)c(F)cc1-c1cc2[nH]ncc2c(NCc2c(F)cccc2N(C)S(C)(=O)=O)n1` [Example 134, N-[2-({[6-(2-ethyl-5-fluoro-4-hydroxyphenyl)-1H-pyrazolo[4,3-c]pyridin-4-yl]amino}methyl)-3-fluorophenyl]-N-methylmethanesulfonamide hydrochloride], the concentration for half-maximal inhibition (IC50) in assay [1] was 259 nM.
Consider `Cc1ccc(NC(=O)c2n[nH]c3cc(-c4cc(F)c(O)cc4CC(F)(F)F)nc(NCc4ccccc4N(C)S(C)(=O)=O)c23)cn1` [Example 76, 6-[5-Fluoro-4-hydroxy-2-(2,2,2-trifluoroethyl)phenyl]-4-({2-[methyl(methylsulfonyl)amino]-benzyl}amino)-N-(6-methylpyridin-3-yl)-1H-pyrazolo[4,3-c]pyridine-3-carboxamide], for which the figures for the IC50 in assay [2] and in assay [1] were 325 nM and 121 nM, respectively.
The like results for `CCc1cc(O)c(F)cc1-c1cc2[nH]ncc2c(NCc2cc(Cl)ccc2N(C)S(C)(=O)=O)n1` [Example 133, N-[4-chloro-2-({[6-(2-ethyl-5-fluoro-4-hydroxyphenyl)-1H-pyrazolo[4,3-c]pyridin-4-yl]amino}methyl)phenyl]-N-methylmethanesulfonamide hydrochloride] were, in that order, 10.1 nM and 34.7 nM.
On to `CCc1cc(O)c(F)cc1-c1cc2[nH]nc(C(=O)Nc3ccc(C)nc3)c2c(NCc2ccccc2N(C)S(C)(=O)=O)n1` [Example 56, 6-(2-ethyl-5-fluoro-4-hydroxyphenyl)-4-({2-[methyl(methylsulfonyl)amino]benzyl}amino)-N-(6-methylpyridin-3-yl)-1H-pyrazolo[4,3-c]pyridine-3-carboxamide], for which the figures for the IC50 in assay [2] and in assay [1] were 277 nM and 53.4 nM, respectively.
Turning to `Cc1ccc(-c2nnc(-c3n[nH]c4cc(-c5cc(F)c(O)cc5CC(F)(F)F)nc(NCc5ccccc5N(C)S(C)(=O)=O)c34)[nH]2)cn1` [Example 166, N-{2-[({6-[5-Fluoro-4-hydroxy-2-(2,2,2-trifluoroethyl)phenyl]-3-[5-(6-methylpyridin-3-yl)-4H-1,2,4-triazol-3-yl]-1H-pyrazolo[4,3-c]pyridin-4-yl}amino)methyl]phenyl}-N-methylmethanesulfonamide], the values for the 50% inhibitory concentration (IC50) in assay [2] and in assay [1] were 697 nM and 591 nM, respectively.
The like results for `CN(c1ccccc1CNc1nc(-c2cc(F)c(O)cc2CC(F)(F)F)nc2[nH]nc(C(N)=O)c12)S(C)(=O)=O` [Example 98, 6-(5-Fluoro-4-hydroxy-2-(2,2,2-trifluoroethyl)phenyl)-4-((2-(N-methylmethylsulfonamido)benzyl)amino)-1H-pyrazolo[3,4-d]pyrimidine-3-carboxamide] were, in that order, 724 nM and 324 nM.
The like results for `CCc1cc(O)c(F)cc1-c1cc2[nH]nc(C(=O)NC)c2c(NCc2cc(O)ccc2N(C)S(C)(=O)=O)n1` [Example 31, 6-(2-Ethyl-5-fluoro-4-hydroxyphenyl)-4-({5-hydroxy-2-[methyl (methylsulfonyl)amino]benzyl}amino)-N-methyl-1H-pyrazolo[4,3-c]pyridine-3-carboxamide] were, in that order, 74 nM and 48.2 nM.
The like results for `CN(c1ccccc1CNc1nc(-c2cc(F)c(O)cc2CC(F)(F)F)cc2[nH]nc(C(N)=O)c12)S(C)(=O)=O` [Example 77, 6-[5-Fluoro-4-hydroxy-2-(2,2,2-trifluoroethyl)phenyl]-4-({2-[methyl(methylsulfonyl)amino]benzyl}amino)-1H-pyrazolo[4,3-c]pyridine-3-carboxamide] were, in that order, 32.9 nM and 59.9 nM.
Consider `CCc1cc(O)c(F)cc1-c1cc2[nH]nc(C(=O)NC)c2c(NCc2ccccc2N(C)S(C)(=O)=O)n1` [Example 19, 6-(2-ethyl-5-fluoro-4-hydroxyphenyl)-N-methyl-4-({2-[methyl(methylsulfonyl)amino]benzyl}amino)-1H-pyrazolo[4,3-c]pyridine-3-carboxamide], for which the concentration for half-maximal inhibition (IC50) in assay [2] amounted to 11.9 nM; in assay [1], 20.2 nM.
With `CC(=O)N1CCc2[nH]c(-c3n[nH]c4nc(-c5cc(F)c(O)cc5CC(F)(F)F)nc(NCc5cc(O)ccc5N(C)S(C)(=O)=O)c34)nc2C1` [Example 170, N-{2-[({3-(5-Acetyl-4,5,6,7-tetrahydro-1H-imidazo[4,5-c]pyridin-2-yl)-6-[5-fluoro-4-hydroxy-2-(2,2,2-trifluoroethyl)phenyl]-1H-pyrazolo[3,4-d]pyrimidin-4-yl}amino)methyl]-4-hydroxyphenyl}-N-methylmethanesulfonamide], the half-inhibitory concentration (IC50) was determined as 1360 nM in assay [2] and 767 nM in assay [1].
As to `CCc1cc(O)c(F)cc1-c1nc(NCc2ccccc2N(C)S(C)(=O)=O)c2c(C(=O)NC)n[nH]c2n1` [Example 93, 6-(2-Ethyl-5-fluoro-4-hydroxyphenyl)-N-methyl-4-((2-(N-methylmethylsulfonamido)benzyl)amino)-1H-pyrazolo[3,4-d]pyrimidine-3-carboxamide], the half-inhibitory concentration (IC50) in assay [2] stood at 31.9 nM; in assay [1], 40.4 nM.
The corresponding values for `CCc1cc(O)c(F)cc1-c1cc2[nH]ncc2c(N(C)Cc2ccccc2N(C)S(C)(=O)=O)n1` [Example 146, N-[2-({[6-(2-Ethyl-5-fluoro-4-hydroxyphenyl)-1H-pyrazolo[4,3-c]pyridin-4-yl](methyl)amino}methyl)phenyl]-N-methylmethanesulfonamide hydrochloride] are 7.6 nM and 62.3 nM.
The corresponding values for `CN(c1ccc(O)cc1CNc1nc(-c2cc(F)c(O)cc2CC(F)(F)F)cc2[nH]nc(C(N)=O)c12)S(C)(=O)=O` [Example 92, 6-[5-Fluoro-4-hydroxy-2-(2,2,2-trifluoroethyl)phenyl]-4-({5-hydroxy-2-[methyl(methylsulfonyl)amino]benzyl}amino)-1H-pyrazolo[4,3-c]pyridine-3-carboxamide] are 398 nM and 343 nM.
The corresponding values for `CCc1cc(O)c(F)cc1-c1cc2[nH]ncc2c(N(C)Cc2ccccc2N(CC)S(C)(=O)=O)n1` [Example 145, N-Ethyl-N-[2-({[6-(2-ethyl-5-fluoro-4-hydroxyphenyl)-1H-pyrazolo[4,3-c]pyridin-4-yl](methyl)amino}methyl)phenyl]methanesulfonamide hydrochloride] are 15.7 nM and 157 nM.
As to `CCc1cc(O)c(F)cc1-c1cc2[nH]ncc2c(NCc2ccccc2N(C)S(C)(=O)=O)n1` [Example 131, N-[2-({[6-(2-Ethyl-5-fluoro-4-hydroxyphenyl)-1H-pyrazolo[4,3-c]pyridin-4-yl]amino}methyl)phenyl]-N-methylmethanesulfonamide], the IC50 in assay [2] stood at 7.4 nM; in assay [1], 24.3 nM.
The like results for `CCc1cc(O)c(F)cc1-c1cc2[nH]nc(-c3nnc(C)[nH]3)c2c(NCc2ccccc2N(C)S(C)(=O)=O)n1` [Example 165, N-[2-({[6-(2-Ethyl-5-fluoro-4-hydroxyphenyl)-3-(5-methyl-4H-1,2,4-triazol-3-yl)-1H-pyrazolo[4,3-c]pyridin-4-yl]amino}methyl)phenyl]-N-methylmethanesulfonamide] were, in that order, 567 nM and 91.3 nM.
Take `CCc1cc(O)c(F)cc1-c1cc2[nH]ncc2c(NCc2cc(C)ccc2N(C)S(C)(=O)=O)n1` [Example 132, N-[2-({[6-(2-ethyl-5-fluoro-4-hydroxyphenyl)-1H-pyrazolo[4,3-c]pyridin-4-yl]amino}methyl)-4-methylphenyl]-N-methylmethanesulfonamide hydrochloride]: the IC50 stood at 256 nM in assay [2] and 206 nM in assay [1].

In general, IC50 refers to the concentration that gives 50% inhibition. A high value points to weaker potency.
